Assay results reported in US20180200257A1, “METHODS FOR THE TREATMENT OF INFLAMMATORY DISORDERS” (Galapagos NV, priority 2015, published 2018).

Test system: subjects with moderately to severely active RA who have an inadequate response to methotrexate (MTX)
Test: Study 1 (add-on to MTX) - serum CRP values
Format: in vivo, human
Procedure: Double-blind, placebo-controlled add on study in subjects with moderately to severely active RA who have an inadequate response to methotrexate (MTX) (oral or parenteral).
595 subjects randomized to one of 6 dose regimens of Compound 1 (dosed as [Compound 1:HCl:3H2O]) (3 dose levels administered either once or twice daily) or placebo on top of each subject's stable dose of MTX.
Compound 1 (dosed as [Compound 1:HCl:3H2O]) is dosed for twelve weeks once daily (q.d.) (50 mg, 100 mg or 200 mg) or twice daily (b.i.d.) (25 mg, 50 mg or 100 mg); or placebo.
At Week 12, the subjects on placebo who have not achieved 20% improvement in swollen joint count (SJC66) and tender joint count (TJC68) are re-randomized automatically to receive Compound 1 (dosed as a [Compound 1:HCl:3H2O]) either at 100 mg q.d. or 50 mg b.i.d. doses in a blinded fashion; subjects on 50 mg q.d. who have not achieved 20% improvement in SJC66 and TJC68 will be assigned to 100 mg q.d. and subjects on 25 mg b.i.d. that have not achieved a 20% improvement in SJC66 and TJC68 will be assigned to 50 mg b.i.d. Subjects who switch treatment at week 12 are handled as if they discontinued at week 12 for the purpose of statistical analysis, whereas subjects in the other groups will maintain their randomized treatment until Week 24.
CRP determination is available at Quest Diagnostics, Clinical Trials, Quest House, 125-135 Staines Road, Hounslow, Middlesex, TW3 3JB, United Kingdom under Catalogue n#86140.
The determination of CRP is made using Immunoturbidimetric assay for the in vitro quantitative determination of CRP in human serum and plasma on Roche/Hitachi cobas c systems, wherein human CRP agglutinates with latex particles coated with monoclonal anti-CRP antibodies. The aggregates are determined turbidimetrically (Eda et al., 1998; Price et al., 1987).
Human serum and plasma samples CRP determination was done on a Roche/Hitachi Cobas c 301 c 501/502 system which automatically calculate the analyte concentration of each sample. Samples containing precipitates are centrifuged before performing the assay.
The machine parameters are listed in Table XCI and Table XCII below, and the results at 12 weeks v using either LOCF are shown in Table XCIII and below. The Hommel-corrected p-value for the pairwise comparisons of each group with placebo is shown.
The number of subjects (N) provided in each groups corresponds to the number of subjects starting the study in each group, and the CRP data reported below corresponds to the responding subjects continuing for the entire 24 weeks on their initial treatment course.

SMILES: O=C(Nc1nc2cccc(-c3ccc(CN4CCS(=O)(=O)CC4)cc3)n2n1)C1CC1 [Compound 1, cyclopropanecarboxylic acid {5-[4-(1,1-dioxo-thiomorpholin-4-ylmethyl)-phenyl]-[1,2,4]triazolo[1,5-a]pyridin-2-yl}-amide]
- CRP mean CFB mg/L (LOCF) (50 mg q.d., week 1, 12 weeks results): -7.95 mg/L
- CRP mean CFB mg/L (LOCF) (50 mg q.d., week 1, 24 weeks results): -7.95 mg/L
- CRP mean CFB mg/L (LOCF) (50 mg q.d., week 2, 12 weeks results): -8.23 mg/L
- CRP mean CFB mg/L (LOCF) (50 mg q.d., week 2, 24 weeks results): -8.23 mg/L
- CRP mean CFB mg/L (LOCF) (50 mg q.d., week 4, 12 weeks results): -10.18 mg/L
- CRP mean CFB mg/L (LOCF) (50 mg q.d., week 4, 24 weeks results): -10.18 mg/L
- CRP mean CFB mg/L (LOCF) (50 mg q.d., week 12, 12 weeks results): -13.15 mg/L
- CRP mean CFB mg/L (LOCF) (50 mg q.d., week 12, 24 weeks results): -13.15 mg/L
- CRP mean CFB mg/L (LOCF) (50 mg q.d., week 16, 24 weeks results): -13.55 mg/L
- CRP mean CFB mg/L (LOCF) (50 mg q.d., week 20, 24 weeks results): -13.12 mg/L
- CRP mean CFB mg/L (LOCF) (50 mg q.d., week 24, 24 weeks results): -15.22 mg/L
- CRP mean CFB mg/L (LOCF) (50 mg q.d., week 8, 12 weeks results): -12.02 mg/L
- CRP mean CFB mg/L (LOCF) (50 mg q.d., week 8, 24 weeks results): -12.02 mg/L
- CRP mean CFB mg/L (LOCF) (100 mg q.d., week 1, 12 weeks results): -11.02 mg/L
- CRP mean CFB mg/L (LOCF) (100 mg q.d., week 1, 24 weeks results): -11.02 mg/L
- CRP mean CFB mg/L (LOCF) (100 mg q.d., week 2, 12 weeks results): -12.94 mg/L
- CRP mean CFB mg/L (LOCF) (100 mg q.d., week 2, 24 weeks results): -12.94 mg/L
- CRP mean CFB mg/L (LOCF) (100 mg q.d., week 4, 12 weeks results): -13.18 mg/L
- CRP mean CFB mg/L (LOCF) (100 mg q.d., week 4, 24 weeks results): -13.18 mg/L
- CRP mean CFB mg/L (LOCF) (100 mg q.d., week 8, 24 weeks results): -12.48 mg/L
- CRP mean CFB mg/L (LOCF) (100 mg q.d., week 12, 12 weeks results): -13.57 mg/L
- CRP mean CFB mg/L (LOCF) (100 mg q.d., week 12, 24 weeks results): -13.57 mg/L
- CRP mean CFB mg/L (LOCF) (100 mg q.d., week 16, 24 weeks results): -11.66 mg/L
- CRP mean CFB mg/L (LOCF) (100 mg q.d., week 20, 24 weeks results): -14.50 mg/L
- CRP mean CFB mg/L (LOCF) (100 mg q.d., week 24, 24 weeks results): -14.89 mg/L
- CRP mean CFB mg/L (LOCF) (100 mg q.d., week 8, 12 weeks results): -12.48 mg/L
- CRP mean CFB mg/L (LOCF) (200 mg q.d., week 1, 12 weeks results): -17.06 mg/L
- CRP mean CFB mg/L (LOCF) (200 mg q.d., week 1, 24 weeks results): -17.06 mg/L
- CRP mean CFB mg/L (LOCF) (200 mg q.d., week 2, 12 weeks results): -17.51 mg/L
- CRP mean CFB mg/L (LOCF) (200 mg q.d., week 2, 24 weeks results): -17.51 mg/L
- CRP mean CFB mg/L (LOCF) (200 mg q.d., week 4, 12 weeks results): -17.94 mg/L
- CRP mean CFB mg/L (LOCF) (200 mg q.d., week 4, 24 weeks results): -17.94 mg/L
- CRP mean CFB mg/L (LOCF) (200 mg q.d., week 8, 24 weeks results): -17.22 mg/L
- CRP mean CFB mg/L (LOCF) (200 mg q.d., week 12, 12 weeks results): -17.24 mg/L
- CRP mean CFB mg/L (LOCF) (200 mg q.d., week 12, 24 weeks results): -17.24 mg/L
- CRP mean CFB mg/L (LOCF) (200 mg q.d., week 16, 24 weeks results): -20.38 mg/L
- CRP mean CFB mg/L (LOCF) (200 mg q.d., week 20, 24 weeks results): -17.89 mg/L
- CRP mean CFB mg/L (LOCF) (200 mg q.d., week 24, 24 weeks results): -15.57 mg/L
- CRP mean CFB mg/L (LOCF) (200 mg q.d., week 8, 12 weeks results): -17.22 mg/L
- CRP mean CFB mg/L (LOCF) (2 × 25 mg b.i.d., week 2, 12 weeks results): -10.06 mg/L
- CRP mean CFB mg/L (LOCF) (2 × 25 mg b.i.d., week 2, 24 weeks results): -10.06 mg/L
- CRP mean CFB mg/L (LOCF) (2 × 25 mg b.i.d., week 4, 12 weeks results): -7.72 mg/L
- CRP mean CFB mg/L (LOCF) (2 × 25 mg b.i.d., week 4, 24 weeks results): -7.72 mg/L
- CRP mean CFB mg/L (LOCF) (2 × 25 mg b.i.d., week 8, 12 weeks results): -10.94 mg/L
- CRP mean CFB mg/L (LOCF) (2 × 25 mg b.i.d., week 8, 24 weeks results): -10.94 mg/L
- CRP mean CFB mg/L (LOCF) (2 × 25 mg b.i.d., week 12, 12 weeks results): -10.26 mg/L
- CRP mean CFB mg/L (LOCF) (2 × 25 mg b.i.d., week 12, 24 weeks results): -10.26 mg/L
- CRP mean CFB mg/L (LOCF) (2 × 25 mg b.i.d., week 16, 24 weeks results): -12.55 mg/L
- CRP mean CFB mg/L (LOCF) (2 × 25 mg b.i.d., week 20, 24 weeks results): -12.20 mg/L
- CRP mean CFB mg/L (LOCF) (2 × 25 mg b.i.d., week 24, 24 weeks results): -11.68 mg/L
- CRP mean CFB mg/L (LOCF) (2 × 25 mg b.i.d., Week 1, 12 weeks results): -8.47 mg/L
- CRP mean CFB mg/L (LOCF) (2 × 25 mg b.i.d., Week 1, 24 weeks results): -8.47 mg/L
- CRP mean CFB mg/L (LOCF) (2 × 50 mg b.i.d., week 2, 12 weeks results): -11.03 mg/L
- CRP mean CFB mg/L (LOCF) (2 × 50 mg b.i.d., week 2, 24 weeks results): -11.03 mg/L
- CRP mean CFB mg/L (LOCF) (2 × 50 mg b.i.d., week 4, 12 weeks results): -13.28 mg/L
- CRP mean CFB mg/L (LOCF) (2 × 50 mg b.i.d., week 4, 24 weeks results): -13.28 mg/L
- CRP mean CFB mg/L (LOCF) (2 × 50 mg b.i.d., week 8, 12 weeks results): -13.25 mg/L
- CRP mean CFB mg/L (LOCF) (2 × 50 mg b.i.d., week 8, 24 weeks results): -13.25 mg/L
- CRP mean CFB mg/L (LOCF) (2 × 50 mg b.i.d., week 12, 12 weeks results): -12.97 mg/L
- CRP mean CFB mg/L (LOCF) (2 × 50 mg b.i.d., week 12, 24 weeks results): -12.97 mg/L
- CRP mean CFB mg/L (LOCF) (2 × 50 mg b.i.d., week 16, 24 weeks results): -12.57 mg/L
- CRP mean CFB mg/L (LOCF) (2 × 50 mg b.i.d., week 20, 24 weeks results): -13.16 mg/L
- CRP mean CFB mg/L (LOCF) (2 × 50 mg b.i.d., week 24, 24 weeks results): -11.96 mg/L
- CRP mean CFB mg/L (LOCF) (2 × 50 mg b.i.d., Week 1, 12 weeks results): -10.08 mg/L
- CRP mean CFB mg/L (LOCF) (2 × 50 mg b.i.d., Week 1, 24 weeks results): -10.08 mg/L
- CRP mean CFB mg/L (LOCF) (2 × 100 mg b.i.d., week 2, 12 weeks results): -19.69 mg/L
- CRP mean CFB mg/L (LOCF) (2 × 100 mg b.i.d., week 2, 24 weeks results): -19.69 mg/L
- CRP mean CFB mg/L (LOCF) (2 × 100 mg b.i.d., week 4, 12 weeks results): -20.64 mg/L
- CRP mean CFB mg/L (LOCF) (2 × 100 mg b.i.d., week 4, 24 weeks results): -20.64 mg/L
- CRP mean CFB mg/L (LOCF) (2 × 100 mg b.i.d., week 8, 12 weeks results): -21.32 mg/L
- CRP mean CFB mg/L (LOCF) (2 × 100 mg b.i.d., week 8, 24 weeks results): -21.32 mg/L
- CRP mean CFB mg/L (LOCF) (2 × 100 mg b.i.d., week 12, 12 weeks results): -20.54 mg/L
- CRP mean CFB mg/L (LOCF) (2 × 100 mg b.i.d., week 12, 24 weeks results): -20.54 mg/L
- CRP mean CFB mg/L (LOCF) (2 × 100 mg b.i.d., week 16, 24 weeks results): -21.34 mg/L
- CRP mean CFB mg/L (LOCF) (2 × 100 mg b.i.d., week 20, 24 weeks results): -20.80 mg/L
- CRP mean CFB mg/L (LOCF) (2 × 100 mg b.i.d., week 24, 24 weeks results): -20.82 mg/L
- CRP mean CFB mg/L (LOCF) (2 × 100 mg b.i.d., Week 1, 12 weeks results): -17.39 mg/L
- CRP mean CFB mg/L (LOCF) (2 × 100 mg b.i.d., Week 1, 24 weeks results): -17.39 mg/L
